For one substance, time of patency results are on record in article PMC7363839, “A Peptide-Based PD1 Antagonist Enhances T-Cell Priming and Efficacy of a Prophylactic Malaria Vaccine and Promotes Survival in a Lethal Malaria Model” (Frontiers in Immunology, 2020).

For the assay, the system named is P. yoelii 17 XNL sporozoites. Briefly: P. yoelii 17 XNL sporozoite challenge of AdPyCS-immunized mice. The assay is classed as in vivo, BALB/c mice. Particulars: suboptimal AdPyCS IM; 200 μg IP days 1, 3, 5, 7; challenge day 12 with 100 sporozoites IV; AdPyCS alone 4.8 ± 0.6 days. The procedure: Sporozoite challenge experiments were performed, as described previously ([32]). Briefly, immunized mice were administered 100 live P. yoelii 17 XNL sporozoites IV via the tail vein. Parasitemia was monitored from days 3 to 10 after sporozoite challenge by detecting the presence of parasitized red blood cells in thin blood smears to assess complete protection against malaria. Briefly, a drop of blood was collected from the mouse tail vein for thin blood smears on pre-cleaned glass slides. Thin blood smears were fixed with absolute methanol and then stained with diluted Giemsa stain (1:20, v/v) (Sigma-Aldrich, St. Louis, MO) for 10 min. […]
Figure 2 LD01 increases antigen-specific CD8^+ T cell numbers following AdPyCS vaccination. (A) At day 12 post-AdPyCS immunization, immunogenicity was assessed by measuring the number of splenic PyCS-specific, IFN-γ-secreting CD8^+ T cells using the ELISpot assay after stimulation with the H-2kd restricted CD8 epitope SYVPSAEQI. Data are expressed as the mean ± SD. […] Significant differences between AdPyCS + control peptide and treated mice were determined using a one-way ANOVA multiple comparisons test and are denoted by *p < 0.05 and **p < 0.005. […] Data represent two independent experiments (n = 10/group/experiment) and are expressed as the mean percent protection. […]

In turn, “OVA323−339 (KISQAVHAAHAEINEAG; UniProt P01012 323-339, looked up, fragment) [control peptide, control peptide used in AdPyCS vaccine studies]” showed a time of patency of 4.7 ± 0.7 days.
